Assay results published in ChEMBL document CHEMBL4359915, “Design, synthesis and biological evaluation of novel diazaspiro[4.5]decan-1-one derivatives as potential chitin synthase inhibitors and antifungal agents” (Eur J Med Chem, 2019).
In brackets after ≈: the same amount, converted by molar mass.

Columns and labels:
Bacillus spizizenii = assay: Antibacterial activity against Bacillus subtilis ATCC 6633 assessed as growth inhibition measured after 24 hrs by two-fold broth dilution method; type: functional; settings: ATCC 6633, 24 h
Candida albicans [1] = assay: Antifungal activity against Candida albicans ATCC 76615 assessed as fluconazole MIC after 24 hrs in presence of fluconazole by two-dimensional broth microdilution checkboard assay; type: functional; settings: ATCC 76615, 24 h
Candida albicans [2] = assay: Antifungal activity against Candida albicans ATCC 76615 after 24 hrs in presence of fluconazole by two-dimensional broth microdilution checkboard assay; type: functional; settings: ATCC 76615, 24 h
Proteus vulgaris = assay: Antibacterial activity against Bacillus proteus ATCC 8427 assessed as growth inhibition measured after 24 hrs by two-fold broth dilution method; type: functional; settings: ATCC 8427, 24 h
Cryptococcus neoformans [3] = assay: Antifungal activity against Cryptococcus neoformans ATCC 32719 assessed as growth inhibition measured after 24 hrs by two-fold broth dilution method; type: functional; settings: ATCC 32719, 24 h
Aspergillus flavus [4] = assay: Antifungal activity against Aspergillus flavus ATCC 16870 assessed as growth inhibition measured after 24 hrs by two-fold broth dilution method; type: functional; settings: ATCC 16870, 24 h
Cryptococcus neoformans [5] = assay: Antifungal activity against Cryptococcus neoformans ATCC 32719 after 24 hrs in presence of fluconazole by two-dimensional broth microdilution checkboard assay; type: functional; settings: ATCC 32719, 24 h
Staphylococcus aureus [6] = assay: Antibacterial activity against Staphylococcus aureus ATCC 25923 assessed as growth inhibition measured after 24 hrs by two-fold broth dilution method; type: functional; settings: ATCC 25923, 24 h
Aspergillus fumigatus [7] = assay: Antifungal activity against Aspergillus fumigatus GIMCC 3.19 assessed as fluconazole MIC after 24 hrs in presence of fluconazole by two-dimensional broth microdilution checkboard assay; type: functional; settings: GIMCC 3.19, 24 h
Candida albicans [8] = assay: Antifungal activity against Candida albicans ATCC 76615 assessed as fractional inhibitory concentration index after 24 hrs in presence of fluconazole by two-dimensional broth microdilution checkboard assay; type: functional
Cryptococcus neoformans [9] = assay: Antifungal activity against Cryptococcus neoformans ATCC 32719 assessed as fluconazole MIC after 24 hrs in presence of fluconazole by two-dimensional broth microdilution checkboard assay; type: functional; settings: ATCC 32719, 24 h
Aspergillus fumigatus [10] = assay: Antifungal activity against Aspergillus fumigatus GIMCC 3.19 after 24 hrs in presence of fluconazole by two-dimensional broth microdilution checkboard assay; type: functional; settings: GIMCC 3.19, 24 h
Aspergillus flavus [11] = assay: Antifungal activity against Aspergillus flavus ATCC 16870 after 24 hrs in presence of fluconazole by two-dimensional broth microdilution checkboard assay; type: functional; settings: ATCC 16870, 24 h
Aspergillus flavus [12] = assay: Antifungal activity against Aspergillus flavus ATCC 16870 assessed as fractional inhibitory concentration index after 24 hrs in presence of fluconazole by two-dimensional broth microdilution checkboard assay; type: functional
Cryptococcus neoformans [13] = assay: Antifungal activity against Cryptococcus neoformans ATCC 32719 assessed as fractional inhibitory concentration index after 24 hrs in presence of fluconazole by two-dimensional broth microdilution checkboard assay; type: functional
Candida albicans [14] = assay: Antifungal activity against Candida albicans ATCC 90023 assessed as growth inhibition measured after 24 hrs by two-fold broth dilution method; type: functional; settings: ATCC 90023, 24 h
Pseudomonas aeruginosa = assay: Antibacterial activity against Pseudomonas aeruginosa ATCC 9027 assessed as growth inhibition measured after 24 hrs by two-fold broth dilution method; type: functional; settings: ATCC 9027, 24 h
Escherichia coli = assay: Antibacterial activity against Escherichia coli JM 109 assessed as growth inhibition measured after 24 hrs by two-fold broth dilution method; type: functional; settings: JM 109, 24 h
Aspergillus fumigatus [15] = assay: Antifungal activity against Aspergillus fumigatus GIMCC 3.19 assessed as growth inhibition measured after 24 hrs by two-fold broth dilution method; type: functional; settings: GIMCC 3.19, 24 h
Aspergillus fumigatus [16] = assay: Antifungal activity against Aspergillus fumigatus GIMCC 3.19 assessed as fractional inhibitory concentration index after 24 hrs in presence of fluconazole by two-dimensional broth microdilution checkboard assay; type: functional
Candida albicans [17] = assay: Antifungal activity against Candida albicans ATCC 76615 assessed as growth inhibition measured after 24 hrs by two-fold broth dilution method; type: functional; settings: ATCC 76615, 24 h
Aspergillus flavus [18] = assay: Antifungal activity against Aspergillus flavus ATCC 16870 assessed as fluconazole MIC after 24 hrs in presence of fluconazole by two-dimensional broth microdilution checkboard assay; type: functional; settings: ATCC 16870, 24 h
Candida tropicalis = assay: Inhibition of Candida tropicalis ATCC 750 chitin synthase at 300 ug/ml using UDP-GlcNAc as substrate relative to control
Staphylococcus aureus [19] = assay: Antibacterial activity against methicillin-resistant Staphylococcus aureus N315 assessed as growth inhibition measured after 24 hrs by two-fold broth dilution method; type: functional; settings: N315, 24 h
[20] = Inhibition of Candida tropicalis ATCC 750 chitin synthase using UDP-GlcNAc as substrate
[21] = Inhibition of Saccharomyces cerevisiae CGMCC 2.145 chitin synthase using GlcNAc and UDP-GlcNAc as substrate incubated for 60 mins by microplate reader analysis

SMILES | MIC (Bacillus spizizenii) | MIC (Candida albicans [1]) | MIC (Candida albicans [2]) | MIC (Proteus vulgaris) | MIC (Cryptococcus neoformans [3]) | MIC (Aspergillus flavus [4]) | MIC (Cryptococcus neoformans [5]) | MIC (Staphylococcus aureus [6]) | MIC (Aspergillus fumigatus [7]) | fractional inhibitory concentration index (FICI) (Candida albicans [8]) | MIC (Cryptococcus neoformans [9]) | MIC (Aspergillus fumigatus [10]) | MIC (Aspergillus flavus [11]) | fractional inhibitory concentration index (FICI) (Aspergillus flavus [12]) | fractional inhibitory concentration index (FICI) (Cryptococcus neoformans [13]) | MIC (Candida albicans [14]) | MIC (Pseudomonas aeruginosa) | MIC (Escherichia coli) | MIC (Aspergillus fumigatus [15]) | MIC (Candida albicans [17]) | other results
O=C(Nc1cc(C(F)(F)F)cc(C(F)(F)F)c1)[C@H](O)[C@@H](O)C(=O)N1CCC2(CCNC2=O)CC1 | 510 µM (≈ 254 µg/mL) | 26 µM | 16 µM | 1030 µM (≈ 512 µg/mL) | 64 µM | 515 µM | 129 µM | 1030 µM (≈ 512 µg/mL) | 52 µM | 1 | 52 µM | 129 µM | 129 µM | 0.5 | 3 | 260 µM (≈ 129 µg/mL) | 510 µM (≈ 254 µg/mL) | 60 µM (≈ 29.8 µg/mL) | 515 µM | 32 µM | fractional inhibitory concentration index (FICI) (Aspergillus fumigatus [16]): 0.8; MIC (Aspergillus flavus [18]): 52 µM; inhibition (Candida tropicalis): 2.3%; MIC (Staphylococcus aureus [19]): 260 µM (≈ 129 µg/mL)
O=C(Nc1ccc(F)c(Cl)c1)[C@H](O)[C@@H](O)C(=O)N1CCC2(CCNC2=O)CC1 | 620 µM (≈ 257 µg/mL) | 52 µM | 77 µM | 310 µM (≈ 128 µg/mL) | 309 µM | 155 µM | 77 µM | 310 µM (≈ 128 µg/mL) | 52 µM | 1.3 | 104 µM | 155 µM | 77 µM | 1 | 2.3 | 150 µM (≈ 62.1 µg/mL) | 620 µM (≈ 257 µg/mL) | 310 µM (≈ 128 µg/mL) | 155 µM | 309 µM | IC50 [20]: 220 µM; fractional inhibitory concentration index (FICI) (Aspergillus fumigatus [16]): 1.5; MIC (Aspergillus flavus [18]): 104 µM; inhibition (Candida tropicalis): 70.6%; MIC (Staphylococcus aureus [19]): 150 µM (≈ 62.1 µg/mL)
COc1ccc(NC(=O)[C@H](O)[C@@H](O)C(=O)N2CCC3(CCNC3=O)CC2)cc1 | 1310 µM (≈ 513 µg/mL) | 52 µM | 164 µM | 330 µM (≈ 129 µg/mL) | 327 µM | 164 µM | 327 µM | 330 µM (≈ 129 µg/mL) | 52 µM | 2 | 26 µM | 41 µM | 82 µM | 0.8 | 1.5 | 330 µM (≈ 129 µg/mL) | 1310 µM (≈ 513 µg/mL) | 330 µM (≈ 129 µg/mL) | 82 µM | 164 µM | IC50 [20]: 120 µM; fractional inhibitory concentration index (FICI) (Aspergillus fumigatus [16]): 1; MIC (Aspergillus flavus [18]): 52 µM; inhibition (Candida tropicalis): 78.3%; MIC (Staphylococcus aureus [19]): 650 µM (≈ 254 µg/mL)
COc1ccc(N2CCN(C(=O)[C@H](O)[C@@H](O)C(=O)Nc3c(O)c4cc(O)ccc4oc3=O)CC2)cc1 | – | – | – | – | 16 to 64 µg/mL | 16 to 64 µg/mL | – | – | – | – | – | – | – | – | – | – | – | – | 16 to 64 µg/mL | 16 to 64 µg/mL | IC50 [21]: 100 µM
O=C(Nc1ccc(Cl)cc1)[C@H](O)[C@@H](O)C(=O)N1CCC2(CCNC2=O)CC1 | 1290 µM (≈ 511 µg/mL) | 13 µM | 10 µM | 650 µM (≈ 257 µg/mL) | 162 µM | 323 µM | 162 µM | 320 µM (≈ 127 µg/mL) | 52 µM | 0.3 | 52 µM | 81 µM | 162 µM | 1 | 2 | 320 µM (≈ 127 µg/mL) | 1290 µM (≈ 511 µg/mL) | 320 µM (≈ 127 µg/mL) | 323 µM | 162 µM | IC50 [20]: 270 µM; fractional inhibitory concentration index (FICI) (Aspergillus fumigatus [16]): 0.8; MIC (Aspergillus flavus [18]): 104 µM; inhibition (Candida tropicalis): 66.5%; MIC (Staphylococcus aureus [19]): 650 µM (≈ 257 µg/mL)
